# Data from patent publication US4937390A, “Compound useful for the production of 3-deoxy-3-fluoro-myo-inositol” (University of Pittsburgh, priority 1989, dated 1990).
# pKi: −log10 of the molar value.
# Key:
# PC12 cells = assay: Cell growth inhibition (cell counts), dose response and time course in PC12 cells; type: cell-based, rat; conditions: for concentration determined to have maximal effects in the dose response study / inhibition of cell replication / Cell Number / potency at inhibiting cell replication relative to the 3-fluoro-myo-inositol analog: PC12 cells; for concentration determined to have maximal effects in the dose response study: cell replication; for inhibition of cell replication: dose response study, maximal effect; for inhibition of cell replication / Cell Number: five days
# Procedure: The biological effects of the 3-fluoro and 1-fluoro myo-inositol analogs were tested in PC12 cells, a cell line derived from a rat pheochromocytoma, which has been widely used to study the effects of various growth factors and […]., Adv. Cell Neurobiol., 3, 373-414, (1982), the disclosure of which is incorporated herein by reference.
# PC12 cells were seeded at a density of 3.3×10^5 cells/cm^2 in plastic culture dishes and grown at 37° C. in a humidified atmosphere of 95% air/5% CO2. The basal medium used in these experiments was RPMI-1640 medium (Gibco). In some experiments a specially formulated inositol-free RPMI-1640 medium (Gibco) was used. This basal medium was supplemented with either normal or extensively dialyzed horse serum (10%) and fetal calf serum (5%) (Gibco). Some control dishes were grown in complete RPMI medium, i.e. with myo-inositol and containing non-dialyzed serum (Control 1) and some control dishes were grown in inositol deficient medium, i.e., RPMI without inositol and with dialyzed serum (Control 2). The inositol analogs were dissolved in distilled H2 O and added to the culture medium at the indicated concentrations.
# Cell counts were performed by removing the medium, washing the cells gently in PBS with calcium, detaching the cells by 15 minute induction in PBS/EDTA (0.5 mM) containing 0.1% trypsin, and counting in a hemocytometer.
# A dose-response study was performed by growing cells in the presence of certain concentrations of the 3-fluoro and the 1-fluoro-myo-inositol analogs. At the end of five days, the cells were counted by the means described hereinabove.
# The time course effect on cell replication was then examined, using the concentration of 1-fluoro and 3-fluoro myo-inositol analogs determined to have maximal effects in the dose response study of Table 1. (1 mM and 5 mM for the 1-fluoro and 3-fluoro-myo-inositol analogs, respectively).
# myo-inositol transporter = biological target: T1, myo-inositol transporter (Rattus norvegicus, UniProt Q80WA5); assay: [3H]myo-inositol uptake by the myo-inositol transporter in PC12 cells; type: cell-based; conditions: for block of [3H]myo-inositol uptake / Maximal Transport Rate Vmax / pKi: PC12 cells; for Maximal Transport Rate Vmax: in the presence of 1 mM analog; for pKi: uptake studies in the presence of a fixed concentration (1 mM) of analog, read-out: Affinity Constant K (Ki of the analog)
# T1 construct: PC12 cells were gently detached and maintained in a suspension culture; endogenous in cells; host or cells: PC12 cells
# T1 sequence (Q80WA5 1-718): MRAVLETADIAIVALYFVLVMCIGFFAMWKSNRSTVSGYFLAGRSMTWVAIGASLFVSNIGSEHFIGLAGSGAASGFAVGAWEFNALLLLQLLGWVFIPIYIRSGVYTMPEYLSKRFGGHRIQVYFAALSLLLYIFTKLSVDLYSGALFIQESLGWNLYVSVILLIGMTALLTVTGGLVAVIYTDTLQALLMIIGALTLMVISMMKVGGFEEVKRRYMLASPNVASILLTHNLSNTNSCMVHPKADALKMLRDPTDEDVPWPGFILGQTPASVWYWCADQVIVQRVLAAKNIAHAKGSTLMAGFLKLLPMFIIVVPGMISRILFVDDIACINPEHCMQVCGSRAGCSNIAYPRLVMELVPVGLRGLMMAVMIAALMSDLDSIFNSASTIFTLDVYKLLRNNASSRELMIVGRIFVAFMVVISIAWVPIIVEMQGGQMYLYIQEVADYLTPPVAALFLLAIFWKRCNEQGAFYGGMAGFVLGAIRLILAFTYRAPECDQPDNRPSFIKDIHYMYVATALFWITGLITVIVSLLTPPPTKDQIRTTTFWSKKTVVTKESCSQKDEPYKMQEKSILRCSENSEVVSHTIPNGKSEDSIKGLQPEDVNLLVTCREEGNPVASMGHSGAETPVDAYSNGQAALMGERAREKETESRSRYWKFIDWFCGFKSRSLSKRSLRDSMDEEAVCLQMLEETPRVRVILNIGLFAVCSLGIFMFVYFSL
# Procedure: To determine if the effect of the fluoro-myo-inositol analogs might be mediated by the blockade of the myo-inositol transporter, which is responsible for uptake and accumulation of myo-inositol into the cell, the ability of these two compounds to block [^3 H]myo-inositol transport was studied directly.
# The uptake of [^3 H]myo-inositol by the myo-inositol transporter was determined as follows:
# PC12 cells were gently detached and maintained in a suspension culture in RPMI medium (both myo-inositol and serum free) at 37° C. ]^3 H]myo-inositol was added to this culture at a concentration of 1μCi/ml. Aliquots of this suspension were removed at the indicated time, diluted in 10 volumes of ice-cold PBS containing 10 mM unlabelled myo-inositol to stop the uptake process, centrifuged at 4° C. for 20 minutes at 50 xg. The cell pellet, which contained the transported [^3 H]myo-inositol, was dissolved in dilute NaOH and the radioactivity quantified by liquid scintillation counting.
# The […] and Vmax of myoinositol were determined from LineweaverBurke plots
# of the uptake of [^3 H]myoinositol (25 nM) in the presence of
# increasing concentrations of unlabeled myoinositol in PC12 cells. The Ki
# of the two fluoromyo-inositol analogs was determined by conducting the
# uptake studies in the presence of a fixed concentration (1 mM) of each
structure (smiles),measurement,setting,value
O[C@@H]1[C@@H](O)[C@@H](O)[C@@H](F)[C@H](O)[C@H]1O [1-deoxy-1-fluoro-myo-inositol],Time course cell counts,"PC12 cells; Day 0, 1 mM, inositol-free medium",1.46 × 10^5 cells per dish
same,Time course cell counts,"PC12 cells; Day 1, 1 mM","2.10 ± 0.03 cells per dish, × 10^5"
same,Time course cell counts,"PC12 cells; Day 3, 1 mM","4.5 ± 0.10 cells per dish, × 10^5"
same,Time course cell counts,"PC12 cells; Day 5, 1 mM","8.4 ± 0.7 cells per dish, × 10^5"
same,Time course cell counts,"PC12 cells; Day 7, 1 mM","10.8 ± 0.6 cells per dish, × 10^5"
same,concentration determined to have maximal effects in the dose response study,PC12 cells,1 mM
same,inhibition of cell replication,PC12 cells,approximately 50%
same,Cell Number,PC12 cells; 0.01 mM,4.53 ± 0.13 × 10^5 cells/dish
same,Cell Number,PC12 cells; 0.03 mM,4.18 ± 0.07 × 10^5 cells/dish
same,Cell Number,PC12 cells; 0.10 mM,3.71 ± 0.03 × 10^5 cells/dish
same,Cell Number,PC12 cells; 0.30 mM,3.29 ± 0.08 × 10^5 cells/dish
same,Cell Number,PC12 cells; 1.0 mM,2.73 ± 0.13 × 10^5 cells/dish
same,Cell Number,PC12 cells; 3.0 mM,2.67 ± 0.09 × 10^5 cells/dish
same,Cell Number,PC12 cells; 10.0 mM,2.68 ± 0.07 × 10^5 cells/dish
same,Cell Number,PC12 cells; 30.0 mM,2.72 ± 0.03 × 10^5 cells/dish
same,potency at inhibiting cell replication relative to the 3-fluoro-myo-inositol analog,PC12 cells; listed as 1-deoxy-1-deoxy-1-fluoro-myo-inositol,about five-fold
same,potency at inhibiting cell replication relative to the 3-fluoro-myo-inositol analog,PC12 cells; listed as 1-fluoro-myo-inositol analog,5 fold
same,"affinity for the myo-inositol transporter, fold lower than the 3-fluoro-myo-inositol analog",myo-inositol transporter,5.7 fold
same,block of [3H]myo-inositol uptake,myo-inositol transporter,did block
same,Maximal Transport Rate Vmax,myo-inositol transporter,2.27 nmol/mg/h
same,pKi,myo-inositol transporter,2.84
O[C@@H]1[C@@H](O)[C@H](O)[C@@H](F)[C@@H](O)[C@H]1O [3-deoxy-3-fluoro-myo-inositol],Time course cell counts,"PC12 cells; Day 0, 5 mM, inositol-free medium",1.46 × 10^5 cells per dish
same,Time course cell counts,"PC12 cells; Day 1, 5 mM","2.12 ± 0.02 cells per dish, × 10^5"
same,Time course cell counts,"PC12 cells; Day 3, 5 mM","4.2 ± 0.1 cells per dish, × 10^5"
same,Time course cell counts,"PC12 cells; Day 5, 5 mM","7.6 ± 0.1 cells per dish, × 10^5"
same,Time course cell counts,"PC12 cells; Day 7, 5 mM","10.6 ± 0.6 cells per dish, × 10^5"
same,concentration determined to have maximal effects in the dose response study,PC12 cells,5 mM
same,inhibition of cell replication,PC12 cells,approximately 50%
same,Cell Number,PC12 cells; 0.01 mM,4.60 ± 0.24 × 10^5 cells/dish
same,Cell Number,PC12 cells; 0.03 mM,4.49 ± 0.07 × 10^5 cells/dish
same,Cell Number,PC12 cells; 0.10 mM,4.21 ± 0.05 × 10^5 cells/dish
same,Cell Number,PC12 cells; 0.30 mM,3.87 ± 0.05 × 10^5 cells/dish
same,Cell Number,PC12 cells; 1.0 mM,3.21 ± 0.08 × 10^5 cells/dish
same,Cell Number,PC12 cells; 3.0 mM,2.53 ± 0.04 × 10^5 cells/dish
same,Cell Number,PC12 cells; 10.0 mM,2.50 ± 0.03 × 10^5 cells/dish
same,Cell Number,PC12 cells; 30.0 mM,2.36 ± 0.01 × 10^5 cells/dish
same,potency in blocking myo-inositol transport relative to the 1-fluoro myo-inositol analog,myo-inositol transporter,5.7 times
same,block of [3H]myo-inositol uptake,myo-inositol transporter,did block
same,Maximal Transport Rate Vmax,myo-inositol transporter,2.27 nmol/mg/h
same,pKi,myo-inositol transporter,3.60
